The text below walks through data of patent US20250325687A1, “CONJUGATE COMPRISING TOLL-LIKE RECEPTOR AGONIST” (MABSOFT THERAPEUTICS (SHANGHAI) CO., LTD., priority 2022, published 2025).

Each structure is given as a SMILES string.

In assay [1] the target is T1, hTLR7 (human Toll-like receptor 7) (Homo sapiens, UniProt Q9NYK1).
T1 construct: host or cells: HEK-Blue hTLR7 (HEK293-derived reporter cells)
T1 sequence (Q9NYK1 27-1049): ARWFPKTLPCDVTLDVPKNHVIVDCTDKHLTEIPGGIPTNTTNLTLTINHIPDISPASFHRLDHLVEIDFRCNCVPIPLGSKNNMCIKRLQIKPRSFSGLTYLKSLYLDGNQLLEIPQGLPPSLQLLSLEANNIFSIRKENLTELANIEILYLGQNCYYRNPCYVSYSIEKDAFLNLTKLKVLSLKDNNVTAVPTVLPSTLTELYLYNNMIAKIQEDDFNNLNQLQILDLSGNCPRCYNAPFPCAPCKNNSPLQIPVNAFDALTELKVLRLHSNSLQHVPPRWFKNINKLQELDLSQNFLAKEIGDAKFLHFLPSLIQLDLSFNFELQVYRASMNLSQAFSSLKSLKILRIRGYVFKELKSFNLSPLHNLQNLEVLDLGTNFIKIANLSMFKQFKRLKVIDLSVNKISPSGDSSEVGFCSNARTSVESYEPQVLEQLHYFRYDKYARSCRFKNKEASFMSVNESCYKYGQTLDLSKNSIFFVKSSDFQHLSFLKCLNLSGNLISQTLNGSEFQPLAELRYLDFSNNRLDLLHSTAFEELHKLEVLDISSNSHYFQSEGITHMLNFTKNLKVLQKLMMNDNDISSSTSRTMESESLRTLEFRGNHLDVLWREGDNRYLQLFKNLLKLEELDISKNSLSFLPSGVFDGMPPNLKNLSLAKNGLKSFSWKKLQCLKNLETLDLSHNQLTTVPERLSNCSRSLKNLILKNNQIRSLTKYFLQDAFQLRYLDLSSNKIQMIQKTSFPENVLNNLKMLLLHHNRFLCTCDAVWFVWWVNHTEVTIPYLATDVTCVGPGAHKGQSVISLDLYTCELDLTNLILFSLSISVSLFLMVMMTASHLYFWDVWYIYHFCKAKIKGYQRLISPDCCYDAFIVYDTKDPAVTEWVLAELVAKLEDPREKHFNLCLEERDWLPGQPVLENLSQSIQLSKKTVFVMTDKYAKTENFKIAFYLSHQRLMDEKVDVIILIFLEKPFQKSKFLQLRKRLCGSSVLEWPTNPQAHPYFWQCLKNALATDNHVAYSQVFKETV
The experiment in a line: hTLR7 cell assay (HEK-Blue hTLR7 reporter cells). To be noted: 24 hours, OD 650 nm. It counts as cell-based. Here is the method: (§1) The payload compounds of Formula (II′) were assayed to evaluate their agonistic activity on hTLR7 (human Toll-like receptor 7) and hTLR8 (human Toll-like receptor 8). Reporter cells lines (HEK-Blue hTLR7 and HEK-Blue hTLR8) were obtained from InvivoGen. Cells were cryopreserved in liquid nitrogen per supplier's instruction. Upon test, the cells were thawed, passaged and cultured in the growth media of DMEM supplemented with 10% fetal bovine serum, 1×NEAA, 1 mM Pyruvate, 2 mM glutamine, […] in the presence of the following antibiotics, as shown as Table 1. Test compounds (at desired concentrations diluted) were added to the 96-well assay plate, 0.5 μL per well. Reporter cells were harvested from the tissue culture flasks by incubation in PBS at 37° C. for two minutes after the media in the flask is removed and cells rinsed with PBS. Cells were counted and diluted in the HEK-Blue Detection media at 50000 cells/mL and incubated for 24 hours at 37° C., in a 5% CO2 humidified incubator. Then 20 μL of cell supernatant were added to the assay plate containing the 180 µL of QUANTI-Blue, incubated for 1 hour at 37° C. Optical density at 650 nm was analyzed using an Envision (Perkin Elmer) plate reader.

Assay [2] addresses T2, hTLR8 (human Toll-like receptor 8) (Homo sapiens, UniProt Q9NR97).
T2 construct: host or cells: HEK-Blue hTLR8 (HEK293-derived reporter cells)
T2 sequence (Q9NR97 27-1041): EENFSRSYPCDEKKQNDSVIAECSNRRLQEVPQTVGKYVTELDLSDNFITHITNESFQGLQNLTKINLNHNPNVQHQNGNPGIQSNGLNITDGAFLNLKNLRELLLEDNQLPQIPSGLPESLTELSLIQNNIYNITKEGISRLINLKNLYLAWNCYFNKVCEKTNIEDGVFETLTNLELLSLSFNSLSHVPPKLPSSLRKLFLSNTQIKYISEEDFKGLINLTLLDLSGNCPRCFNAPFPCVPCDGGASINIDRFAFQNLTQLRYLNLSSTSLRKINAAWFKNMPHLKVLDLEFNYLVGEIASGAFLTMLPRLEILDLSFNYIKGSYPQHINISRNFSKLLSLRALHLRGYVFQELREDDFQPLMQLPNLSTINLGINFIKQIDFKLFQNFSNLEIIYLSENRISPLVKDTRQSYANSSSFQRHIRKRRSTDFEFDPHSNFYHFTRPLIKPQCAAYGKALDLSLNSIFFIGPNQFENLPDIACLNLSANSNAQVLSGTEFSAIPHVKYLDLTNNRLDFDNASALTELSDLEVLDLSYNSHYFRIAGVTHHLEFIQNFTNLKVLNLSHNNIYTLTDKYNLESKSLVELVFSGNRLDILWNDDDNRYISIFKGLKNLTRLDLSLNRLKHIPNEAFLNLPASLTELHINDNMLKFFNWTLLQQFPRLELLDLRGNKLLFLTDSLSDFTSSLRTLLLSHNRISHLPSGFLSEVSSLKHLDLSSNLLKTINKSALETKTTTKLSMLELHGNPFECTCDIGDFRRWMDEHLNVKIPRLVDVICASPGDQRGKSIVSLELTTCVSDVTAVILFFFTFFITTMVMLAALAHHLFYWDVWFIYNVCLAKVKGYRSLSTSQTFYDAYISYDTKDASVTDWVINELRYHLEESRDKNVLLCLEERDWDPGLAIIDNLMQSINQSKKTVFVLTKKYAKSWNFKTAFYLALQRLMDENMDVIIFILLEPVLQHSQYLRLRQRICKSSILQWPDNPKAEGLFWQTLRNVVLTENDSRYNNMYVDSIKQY
The experiment in a line: hTLR8 cell assay (HEK-Blue hTLR8 reporter cells). It counts as cell-based. To be noted: 24 hours, OD 650 nm. Here is the method: as §1

As usually defined, the EC50 is the midpoint of the concentration-response curve. A high value points to a need for much substance. As to `CCCC(C)c1nc2c(N)nc3cc(Cc4ccc(CCN)cc4)ccc3c2n1CC(C)(C)OC` (stereo not drawn) [Compound 48, 7-(4-(2-aminoethyl)benzyl)-1-(2-methoxy-2-methylpropyl)-2-(pentan-2-yl)-1H-imidazo[4,5-c]quinolin-4-amine], the EC50 in assay [1] is over 10 µM; in assay [2], 5 to 20 µM.
As for `CCOCc1nc2c(N)nc3cc(Cc4ccccc4)ccc3c2n1CC1CC(CN)C1` (stereo not drawn) [Compound 40, 1-((3-(aminomethyl)cyclobutyl)methyl)-7-benzyl-2-(ethoxymethyl)-1H-imidazo[4,5-c]quinolin-4-amine], the figures for the EC50 in assay [1] and in assay [2] were 1 to 10 µM and over 20 µM, respectively.
The corresponding values for `CCOCc1nc2c(N)nc3cc(Cc4ccc(CCN)cc4)ccc3c2n1CC(C)(C)OCCNC(=O)C(C)(C)N` [Compound 21] are under 1 µM and over 20 µM.
Taken in the same sequence, the figures for `CCOCc1nc2c(N)nc3cc(Cc4ccc(CCN)cc4)ccc3c2n1CC(C)(C)OCCN1CCCC1` [Compound 26, 7-(4-(2-aminoethyl)benzyl)-2-(ethoxymethyl)-1-(2-methyl-2-(2-(pyrrolidin-1-yl)ethoxy)propyl)-1H-imidazo[4,5-c]quinolin-4-amine] were 1 to 10 µM and over 20 µM.
The corresponding values for `CCCC(C)c1nc2c(N)nc3cc(Cc4cccc(CCN)c4)ccc3c2n1CC(C)(C)O` (stereo not drawn) [Compound 13, 1-(4-amino-7-(3-(2-aminoethyl)benzyl)-2-(pentan-2-yl)-1H-imidazo[4,5-c]quinolin-1-yl)-2-methylpropan-2-ol] are 1 to 10 µM and under 5 µM.
As for `CCCC(C)c1nc2c(N)nc3cc(Cc4ccccc4)ccc3c2n1CC(C)(C)OCCN` (racemic) [Compound 28, 1-(2-(2-aminoethoxy)-2-methylpropyl)-7-benzyl-2-(pentan-2-yl)-1H-imidazo[4,5-c]quinolin-4-amine], the EC50 is over 10 µM in assay [1] and under 5 µM in assay [2].
Consider `CCOCc1nc2c(N)nc3cc(Cc4ccc(NC(=O)NCCN)cc4)ccc3c2n1CC(C)(C)O` [Compound 7, 1-(4-((4-amino-2-(ethoxymethyl)-1-(2-hydroxy-2-methylpropyl)-1H-imidazo[4,5-c]quinolin-7-yl)methyl)phenyl)-3-(2-aminoethyl)urea], for which the concentration for a half-maximal effect (EC50) in assay [1] is over 10 µM; in assay [2] it was 5 to 20 µM.
The corresponding values for `CCOCc1nc2c(N)nc3cc(Cc4ccc(CCN)cc4)ccc3c2n1CC1(O)CC1` [Compound 47, 1-((4-amino-7-(4-(2-aminoethyl)benzyl)-2-(ethoxymethyl)-1H-imidazo[4,5-c]quinolin-1-yl)methyl)cyclopropan-1-ol] are over 10 µM and over 20 µM.
The corresponding values for `CCOCc1nc2c(N)nc3cc(Cc4ccccc4)ccc3c2n1CC(C)(C)NCCN` [Compound 37, N1-(1-(4-amino-7-benzyl-2-(ethoxymethyl)-1H-imidazo[4,5-c]quinolin-1-yl)-2-methylpropan-2-yl)ethane-1,2-diamine] are over 10 µM and over 20 µM.
Taken in the same sequence, the figures for `CCOCc1nc2c(N)nc3cc(Cc4ccc(CCN)cc4)ccc3c2n1CC(C)(C)OCCNC(=O)C(C)C` [Compound 22, N-(2-((1-(4-amino-7-(4-(2-aminoethyl)benzyl)-2-(ethoxymethyl)-1H-imidazo[4,5-c]quinolin-1-yl)-2-methylpropan-2-yl)oxy)ethyl)isobutyramide] were 1 to 10 µM and over 20 µM.
On to `CCOCc1nc2c(N)nc3cc(Cc4ccccc4)ccc3c2n1CCC(O)C(F)(F)F` (stereo not drawn) [Compound 46, 4-(4-amino-7-benzyl-2-(ethoxymethyl)-1H-imidazo[4,5-c]quinolin-1-yl)-1,1,1-trifluorobutan-2-ol], for which the EC50 is over 10 µM in assay [1] and over 20 µM in assay [2].
The corresponding values for `CCOCc1nc2c(N)nc3cc(Cc4ccccc4)ccc3c2n1CCCCN` [Compound 39, 1-(4-aminobutyl)-7-benzyl-2-(ethoxymethyl)-1H-imidazo[4,5-c]quinolin-4-amine] are over 10 µM and 5 to 20 µM.
Taken in the same sequence, the figures for `CCCC(C)c1nc2c(N)nc3cc(Cc4cccc(CN)c4)ccc3c2n1CC(C)(C)O` (stereo not drawn) [Compound 12, 1-(4-amino-7-(3-(aminomethyl)benzyl)-2-(pentan-2-yl)-1H-imidazo[4,5-c]quinolin-1-yl)-2-methylpropan-2-ol] were 1 to 10 µM and under 5 µM.
The corresponding values for `CCOCc1nc2c(N)nc3cc(Cc4ccc(CN)cc4)ccc3c2n1CC(C)(C)O` [Compound 1, 1-(4-amino-7-(4-(aminomethyl)benzyl)-2-(ethoxymethyl)-1H-imidazo[4,5-c]quinolin-1-yl)-2-methylpropan-2-ol] are over 10 µM and over 20 µM.
Consider `CCCC(C)c1nc2c(N)nc3cc(Cc4ccc(CCN)cc4)ccc3c2n1Cc1ccccc1` (stereo not drawn) [Compound 41, 7-(4-(2-aminoethyl)benzyl)-1-benzyl-2-(pentan-2-yl)-1H-imidazo[4,5-c]quinolin-4-amine], for which the values for the EC50 in assay [1] and in assay [2] were 1 to 10 µM and 5 to 20 µM, respectively.
For `CCOCc1nc2c(N)nc3cc(Cc4ccc(CCN)cc4)ccc3c2n1C[C@@H]1[C@@H](CO)C1(F)F` [Compound 49, ((1S,3S)-3-((4-amino-7-(4-(2-aminoethyl)benzyl)-2-(ethoxymethyl)-1H-imidazo[4,5-c]quinolin-1-yl)methyl)-2,2-difluorocyclopropyl)methanol], the EC50 was over 10 µM in assay [1] and 5 to 20 µM in assay [2].
The corresponding values for `CCC[C@H](C)c1nc2c(N)nc3cc(Cc4ccc(CCN)cc4)ccc3c2n1CC(C)(C)O` [Compound 10, (S)-1-(4-amino-7-(4-(2-aminoethyl)benzyl)-2-(pentan-2-yl)-1H-imidazo[4,5-c]quinolin-1-yl)-2-methylpropan-2-ol] are over 10 µM and over 20 µM.
Take `CCOCc1nc2c(N)nc3cc(Cc4ccc(CC(N)=O)cc4)ccc3c2n1CCNS(C)(=O)=O` [Compound 35, 2-(4-((4-amino-2-(ethoxymethyl)-1-(2-(methylsulfonamido)ethyl)-1H-imidazo[4,5-c]quinolin-7-yl)methyl)phenyl)acetamide]: the values for the EC50 in assay [1] and in assay [2] were 1 to 10 µM and over 20 µM, respectively.
